Key:
[1] = target: GABA A receptor alpha-5/beta-3/gamma-2 (Rattus norvegicus, UniProt P18508+P19969+P63079); test: Displacement of [3H]muscimol from GABAA alpha-1-beta-3-gamma-2S in rat brain membrane; format: cell membranes
[2] = target: T1, GABA-A receptor; alpha-1/beta-3/gamma-2 (Homo sapiens, UniProt P14867+P18507+P28472); test: Binding affinity at human GABAA alpha-1-beta-3-gamma-2S expressed in Xenopus oocytes by voltage-clamp electrophysiology; format: functional, cell-based, Oocyte
T1 sequence (P14867 whole entry): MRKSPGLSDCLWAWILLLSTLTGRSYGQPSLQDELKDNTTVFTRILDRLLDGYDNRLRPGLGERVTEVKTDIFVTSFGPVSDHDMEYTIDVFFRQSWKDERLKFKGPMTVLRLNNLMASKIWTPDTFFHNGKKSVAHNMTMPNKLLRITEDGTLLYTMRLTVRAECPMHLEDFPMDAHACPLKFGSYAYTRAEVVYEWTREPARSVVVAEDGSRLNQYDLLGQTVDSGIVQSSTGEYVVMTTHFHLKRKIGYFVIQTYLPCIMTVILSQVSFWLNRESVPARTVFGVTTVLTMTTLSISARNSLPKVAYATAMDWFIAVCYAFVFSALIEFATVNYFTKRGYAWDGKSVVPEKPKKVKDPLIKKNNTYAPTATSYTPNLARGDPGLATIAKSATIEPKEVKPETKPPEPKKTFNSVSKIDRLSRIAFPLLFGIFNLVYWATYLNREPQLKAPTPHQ
T1 sequence (P18507 whole entry): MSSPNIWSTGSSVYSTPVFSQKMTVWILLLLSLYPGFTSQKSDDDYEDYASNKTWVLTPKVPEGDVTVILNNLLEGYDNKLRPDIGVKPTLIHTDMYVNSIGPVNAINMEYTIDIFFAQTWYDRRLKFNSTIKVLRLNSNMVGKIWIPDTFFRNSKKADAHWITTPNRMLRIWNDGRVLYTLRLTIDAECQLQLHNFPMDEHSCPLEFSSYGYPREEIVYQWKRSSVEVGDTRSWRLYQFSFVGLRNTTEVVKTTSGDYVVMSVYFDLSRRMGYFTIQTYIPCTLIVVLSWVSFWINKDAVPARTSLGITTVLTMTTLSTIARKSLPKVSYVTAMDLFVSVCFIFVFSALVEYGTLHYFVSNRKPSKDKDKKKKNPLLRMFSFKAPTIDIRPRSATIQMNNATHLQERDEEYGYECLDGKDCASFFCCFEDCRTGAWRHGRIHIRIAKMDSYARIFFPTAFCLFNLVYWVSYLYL
T1 sequence (P28472 whole entry): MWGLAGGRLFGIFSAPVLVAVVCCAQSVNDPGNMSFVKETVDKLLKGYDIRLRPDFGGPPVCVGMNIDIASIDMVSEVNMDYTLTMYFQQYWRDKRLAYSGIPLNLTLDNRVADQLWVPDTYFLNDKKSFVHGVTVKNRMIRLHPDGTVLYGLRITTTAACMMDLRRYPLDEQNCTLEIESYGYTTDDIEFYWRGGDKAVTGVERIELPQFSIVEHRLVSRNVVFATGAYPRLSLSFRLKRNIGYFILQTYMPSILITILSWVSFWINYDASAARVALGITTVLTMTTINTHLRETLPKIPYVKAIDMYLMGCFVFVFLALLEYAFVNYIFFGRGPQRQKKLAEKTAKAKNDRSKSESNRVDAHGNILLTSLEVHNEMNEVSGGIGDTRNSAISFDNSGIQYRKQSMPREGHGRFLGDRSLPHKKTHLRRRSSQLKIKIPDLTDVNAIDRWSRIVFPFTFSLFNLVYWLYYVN

[3] = Binding affinity at human GABAA alpha-4-beta-3-delta expressed in Xenopus oocytes by voltage-clamp electrophysiology; format: functional, cell-based; details: oocyte
[4] = target: GABA-A receptor; alpha-1/beta-3/gamma-2 (Homo sapiens) (UniProt P14867+P18507+P28472); test: Maximal effect at GABA alpha-1-beta-3-gamma-2S expressed in Xenopus oocytes; format: functional, cell-based; details: Oocyte
[5] = Maximal effect at GABA alpha-4-beta-3-delta expressed in Xenopus oocytes; format: functional; details: Homo sapiens, Oocyte

Chain of GABA A receptor alpha-5/beta-3/gamma-2 (P18508 whole entry): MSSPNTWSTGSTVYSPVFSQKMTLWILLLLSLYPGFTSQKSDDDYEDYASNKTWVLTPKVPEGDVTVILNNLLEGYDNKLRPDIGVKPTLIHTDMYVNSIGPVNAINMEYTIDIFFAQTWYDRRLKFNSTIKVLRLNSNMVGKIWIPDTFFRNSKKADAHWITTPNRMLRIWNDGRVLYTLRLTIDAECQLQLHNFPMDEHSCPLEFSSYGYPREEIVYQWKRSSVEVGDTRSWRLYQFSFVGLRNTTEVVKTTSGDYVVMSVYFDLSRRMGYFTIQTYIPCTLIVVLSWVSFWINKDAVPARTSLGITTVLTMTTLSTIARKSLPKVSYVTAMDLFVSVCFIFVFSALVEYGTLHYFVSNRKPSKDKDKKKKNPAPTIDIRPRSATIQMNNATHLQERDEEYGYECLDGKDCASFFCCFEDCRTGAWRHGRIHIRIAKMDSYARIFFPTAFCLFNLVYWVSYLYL
Chain of GABA A receptor alpha-5/beta-3/gamma-2 (P19969 whole entry): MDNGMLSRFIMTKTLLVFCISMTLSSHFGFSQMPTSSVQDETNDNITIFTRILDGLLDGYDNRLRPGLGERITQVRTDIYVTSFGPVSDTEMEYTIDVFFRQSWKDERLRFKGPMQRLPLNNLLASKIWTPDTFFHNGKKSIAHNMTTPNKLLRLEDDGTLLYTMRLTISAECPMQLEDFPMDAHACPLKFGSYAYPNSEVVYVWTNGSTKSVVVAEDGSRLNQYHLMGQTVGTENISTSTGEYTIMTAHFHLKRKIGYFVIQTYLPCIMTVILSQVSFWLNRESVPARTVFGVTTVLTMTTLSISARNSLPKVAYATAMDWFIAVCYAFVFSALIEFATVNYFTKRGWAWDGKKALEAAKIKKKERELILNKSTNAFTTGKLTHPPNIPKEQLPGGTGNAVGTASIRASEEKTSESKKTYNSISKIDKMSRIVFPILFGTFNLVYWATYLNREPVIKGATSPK
Chain of GABA A receptor alpha-5/beta-3/gamma-2 (P63079 whole entry): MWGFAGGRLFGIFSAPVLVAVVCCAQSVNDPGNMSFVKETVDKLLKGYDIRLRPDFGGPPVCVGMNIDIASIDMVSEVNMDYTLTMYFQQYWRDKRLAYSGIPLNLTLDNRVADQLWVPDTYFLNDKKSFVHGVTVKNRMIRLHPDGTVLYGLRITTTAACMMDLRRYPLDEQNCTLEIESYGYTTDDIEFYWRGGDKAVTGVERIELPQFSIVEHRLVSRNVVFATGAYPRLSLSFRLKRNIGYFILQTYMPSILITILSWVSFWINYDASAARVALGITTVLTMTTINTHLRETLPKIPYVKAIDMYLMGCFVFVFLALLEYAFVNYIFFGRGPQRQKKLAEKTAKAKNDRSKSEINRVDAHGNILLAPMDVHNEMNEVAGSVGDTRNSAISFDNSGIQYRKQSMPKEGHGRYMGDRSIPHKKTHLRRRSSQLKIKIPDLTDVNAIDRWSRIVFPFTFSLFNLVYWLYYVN

| Ki [1] [nM] | Ki [2] [nM] | Ki [3] [nM] | Emax [4] [%] | Structure (SMILES) | Emax [5] [%] |
| --- | --- | --- | --- | --- | --- |
| 49 | 370 |  |  | Oc1noc(C2CCNCC2)c1Cc1ccc2ccccc2c1 |  |
| 388 | 720 |  |  | O=c1[nH]sc(C2CCNCC2)c1CC(c1ccccc1)c1ccccc1 |  |
| 68 | 20 | 2.3 | 90 | Oc1noc(C2CCNCC2)c1CCC(c1ccccc1)c1ccccc1 |  |
| 1.8 | 3 |  |  | Oc1nsc(C2CCNCC2)c1Cc1ccc2ccccc2c1Br |  |
| 5.2 | 22 |  |  | Oc1nsc(C2CCNCC2)c1Cc1ccc2ccccc2c1 |  |
| 9.6 | 1.2 | 0.35 |  | Oc1nsc(C2CCNCC2)c1CCC(c1ccccc1)c1ccccc1 | 40 |
| 331 | 465 |  |  | Oc1nsc(C2CCNCC2)c1Cc1ccccc1 |  |

| Structure (SMILES) | Ki [1] [nM] | Ki [2] [nM] | Ki [3] [nM] | Emax [4] [%] | Emax [5] [%] |
| --- | --- | --- | --- | --- | --- |
| Oc1cc(C2CCNCC2)sn1 | 1870 | 25700 |  |  |  |
| Cc1c(O)nsc1C1CCNCC1 | 2200 | 2880 |  |  |  |
| CCCc1c(C2CCNCC2)s[nH]c1=O | 440 | 230 |  |  |  |

Source: ChEMBL document CHEMBL1149421, “Potent 4-arylalkyl-substituted 3-isothiazolol GABA(A) competitive/noncompetitive antagonists: synthesis and pharmacology” (J Med Chem, 2006)
